# Measured values as given in patent US20100298252A1, “METHODS AND COMPOSITIONS FOR OPHTHALMIC TREATMENT OF FUNGAL AND BACTERIAL INFECTIONS” (priority 2004, published 2010).
# Key:
# [1] = system: Paecilomyces variotti ATCC 36257; assay: Antifungal MIC 50 / MIC 90 alone and combined with Tricide; assay type: cell-based; settings: for MIC50 / MIC90: ATCC36257, Paecilomyces variotti ATCC 36257, antifungal alone; for MIC50: read-out: MIC 50; for MIC90: read-out: MIC 90; for Summary % reduction in MIC 50 using Tricide / Summary % reduction in MIC 90 using Tricide: Paecilomyces variotti ATCC36257; for % decrease MIC 50 / % decrease MIC 90 / MIC 50 combined with Tricide / MIC 90 combined with Tricide: Paecilomyces variotti, Tricide […]
# Aspergillus sp. = assay: as above; assay type: cell-based; settings: for % decrease MIC 50 / % decrease MIC 90 / MIC 50 combined with Tricide / MIC 90 combined with Tricide: Aspergillus sp.; for MIC50 / MIC90: Aspergillus, antifungal alone; for MIC50 / MIC90 / Summary % reduction in MIC 50 using Tricide / Summary % reduction in MIC 90 using Tricide: Aspergiullus sp.
# Fusarium sp. 2 = assay: microbe, parasite or virus in culture; assay type: cell-based; settings: for MIC50 / MIC90: antifungal alone
# Penicillium sp. = assay: Antifungal MIC 50 / MIC 90 alone and combined with Tricide; assay type: cell-based; settings: for % decrease MIC 50 / % decrease MIC 90 / MIC 50 combined with Tricide / MIC 90 combined with Tricide: Tricide 200 ug/ml; for MIC50 / MIC90: antifungal alone
# [2] = system: Candidia albicans ATCC 90028; assay: as above; assay type: cell-based, Candida albicans; settings: for MIC50 / MIC90: ATCC90028, antifungal alone; for MIC50 / MIC90 / Summary % reduction in MIC 50 using Tricide / Summary % reduction in MIC 90 using Tricide: Candidia albicans ATCC 90028;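 on all read-outs here: MIC 50 and MIC 90 values are means, and the percent decrease is the drop in MIC when the antifungal is combined with Tricide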
# Cladosporium sp. = assay: as above; assay type: cell-based; settings: for MIC50 / MIC90: antifungal alone
# Curvularia sp. = assay: as above; assay type: cell-based; settings: for Summary % reduction in MIC 50 using Tricide / Summary % reduction in MIC 90 using Tricide / MIC50 / MIC90: Curvularia sp.; for MIC50 / MIC90: antifungal alone;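 on all read-outs here: antifungal MIC 50 and MIC 90 values against fungal isolates, with percent figures expressing how much the MIC fell once Tricide was added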
# Fusarium sp. 1 = assay: microbe, parasite or virus in culture; assay type: cell-based; settings: for Summary % reduction in MIC 50 using Tricide / Summary % reduction in MIC 90 using Tricide: Fasarium sp. 1; for MIC50 / MIC90: antifungal alone;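 on all read-outs here: mean MIC 50 and MIC 90 values against fungal isolates, with percent decrease in MIC when the antifungal is combined with Tricide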
# Fusarium sp. 3 = assay: microbe, parasite or virus in culture; assay type: cell-based; settings: for % decrease MIC 50 / % decrease MIC 90 / MIC 50 combined with Tricide / MIC 90 combined with Tricide: Tricide 540 ug/ml; for MIC50 / MIC90: antifungal alone
# [3] = Curvilaria sp., Tricide 200 ug/ml
# [4] = Fusarium sp. 1, Tricide 540 ug/ml
structure (smiles),measurement,setting,value
"C[C@@H]1C/C=C/C=C/C=C/C=C/[C@H](O[C@@H]2O[C@H](C)[C@@H](O)[C@H](N)[C@@H]2O)C[C@@H]2O[C@](O)(C[C@@H](O)C[C@H]3O[C@@H]3/C=C/C(=O)O1)C[C@H](O)[C@H]2C(=O)O [Natamycin, natamycin]",MIC50,[1],2.4 to 4.8 µg/mL
same,MIC90,[1],9.6 µg/mL
same,Summary % reduction in MIC 50 using Tricide,[1],75-87.5%^
same,Summary % reduction in MIC 90 using Tricide,[1],50%
same,% decrease MIC 50,[1],75%-87.5%
same,% decrease MIC 90,[1],50%
same,MIC 50 combined with Tricide,[1],0.6 µg/mL
same,MIC 90 combined with Tricide,[1],4.8 µg/mL
same,% decrease MIC 50,Aspergillus sp.; Tricide 200 ug/ml,93.8%
same,% decrease MIC 90,Aspergillus sp.; Tricide 200 ug/ml,0%
same,MIC 50 combined with Tricide,Aspergillus sp.; Tricide 200 ug/ml,1.2 µg/mL
same,MIC 90 combined with Tricide,Aspergillus sp.; Tricide 200 ug/ml,>19.2 µg/mL
same,% decrease MIC 50,Aspergillus sp.; Tricide 400 ug/ml,100%
same,% decrease MIC 90,Aspergillus sp.; Tricide 400 ug/ml,100%
same,MIC 50 combined with Tricide,Aspergillus sp.; Tricide 400 ug/ml,0 µg/mL
same,MIC 90 combined with Tricide,Aspergillus sp.; Tricide 400 ug/ml,0 µg/mL
same,MIC50,Aspergillus sp.,> 19.2 µg/mL
same,MIC90,Aspergillus sp.,19.2 µg/mL
same,Summary % reduction in MIC 50 using Tricide,Aspergillus sp.,100%
same,Summary % reduction in MIC 90 using Tricide,Aspergillus sp.,100%
same,Summary % reduction in MIC 50 using Tricide,Fusarium sp. 2,100%
same,Summary % reduction in MIC 90 using Tricide,Fusarium sp. 2,>99%-100%
same,% decrease MIC 50,Fusarium sp. 2; Tricide 540 ug/ml,100%
same,% decrease MIC 90,Fusarium sp. 2; Tricide 540 ug/ml,>99-100% ^
same,MIC 50 combined with Tricide,Fusarium sp. 2; Tricide 540 ug/ml,0 µg/mL
same,MIC 90 combined with Tricide,Fusarium sp. 2; Tricide 540 ug/ml,0 to 1.92 µg/mL
same,MIC50,Fusarium sp. 2,> 19.2 µg/mL
same,MIC90,Fusarium sp. 2,> 19.2 µg/mL
same,Summary % reduction in MIC 50 using Tricide,Penicillium sp.,100%
same,Summary % reduction in MIC 90 using Tricide,Penicillium sp.,100%
same,% decrease MIC 50,Penicillium sp.,100%
same,% decrease MIC 90,Penicillium sp.,100%
same,MIC 50 combined with Tricide,Penicillium sp.,0 µg/mL
same,MIC 90 combined with Tricide,Penicillium sp.,0 µg/mL
same,MIC50,Penicillium sp.,9.6 µg/mL
same,MIC90,Penicillium sp.,19.2 µg/mL
same,MIC50,[2]; Candida albicans,> 14.4 µg/mL
same,MIC90,[2]; Candida albicans,> 19.2 µg/mL
same,% decrease MIC 50,"[2]; Candida albicans, Tricide […]",99.3%
same,% decrease MIC 90,"[2]; Candida albicans, Tricide […]",90%
same,MIC 50 combined with Tricide,"[2]; Candida albicans, Tricide […]",≦0.10 ug/ml
same,MIC 90 combined with Tricide,"[2]; Candida albicans, Tricide […]",4.92 µg/mL
same,Summary % reduction in MIC 50 using Tricide,[2],99.3%
same,Summary % reduction in MIC 90 using Tricide,[2],90%
same,MIC50,Cladosporium sp.,> 19.2 µg/mL
same,MIC90,Cladosporium sp.,> 19.2 µg/mL
same,% decrease MIC 50,Curvularia sp.; [3],100%
same,% decrease MIC 90,Curvularia sp.; [3],100%
same,MIC 50 combined with Tricide,Curvularia sp.; [3],0 µg/mL
same,Summary % reduction in MIC 50 using Tricide,Curvularia sp.,100%
same,Summary % reduction in MIC 90 using Tricide,Curvularia sp.,100%
same,MIC50,Curvularia sp.,9.6 µg/mL
same,MIC90,Curvularia sp.,19.2 µg/mL
same,Summary % reduction in MIC 50 using Tricide,Fusarium sp. 1,100%
same,Summary % reduction in MIC 90 using Tricide,Fusarium sp. 1,100%
same,% decrease MIC 50,Fusarium sp. 1; [4],100%
same,% decrease MIC 90,Fusarium sp. 1; [4],100%
same,MIC 50 combined with Tricide,Fusarium sp. 1; [4],0 µg/mL
same,MIC 90 combined with Tricide,Fusarium sp. 1; [4],0 µg/mL
same,MIC50,Fusarium sp. 1; Fusarium sp. 1,> 19.2 µg/mL
same,MIC90,Fusarium sp. 1; Fusarium sp. 1,> 19.2 µg/mL
same,Summary % reduction in MIC 50 using Tricide,Fusarium sp. 3,100%
same,Summary % reduction in MIC 90 using Tricide,Fusarium sp. 3,100%
same,% decrease MIC 50,Fusarium sp. 3,100%
same,% decrease MIC 90,Fusarium sp. 3,100%
same,MIC 50 combined with Tricide,Fusarium sp. 3,0 µg/mL
same,MIC 90 combined with Tricide,Fusarium sp. 3,0 µg/mL
same,MIC50,Fusarium sp. 3,> 19.2 µg/mL
same,MIC90,Fusarium sp. 3,> 19.2 µg/mL
"CCC(C)n1ncn(-c2ccc(N3CCN(c4ccc(OCC5COC(Cn6cncn6)(c6ccc(Cl)cc6Cl)O5)cc4)CC3)cc2)c1=O (centres unmarked) [Itraconazole, itraconazole]",MIC50,[1],0.0764 µg/mL
same,MIC90,[1],0.5 µg/mL
same,Summary % reduction in MIC 50 using Tricide,[1],95%
same,Summary % reduction in MIC 90 using Tricide,[1],50%
same,% decrease MIC 50,[1],95%
same,% decrease MIC 90,[1],50%
same,MIC 50 combined with Tricide,[1],0.0039 µg/mL
same,MIC 90 combined with Tricide,[1],0.25 µg/mL
same,% decrease MIC 50,Aspergillus sp.; Tricide 200 ug/ml,84%
same,% decrease MIC 90,Aspergillus sp.; Tricide 200 ug/ml,90%
same,MIC 50 combined with Tricide,Aspergillus sp.; Tricide 200 ug/ml,0.1250 µg/mL
same,MIC 90 combined with Tricide,Aspergillus sp.; Tricide 200 ug/ml,0.25 µg/mL
same,MIC50,Aspergillus sp.,0.786 µg/mL
same,MIC90,Aspergillus sp.,2.43 µg/mL
same,Summary % reduction in MIC 50 using Tricide,Aspergillus sp.,84%
same,Summary % reduction in MIC 90 using Tricide,Aspergillus sp.,90%
same,Summary % reduction in MIC 50 using Tricide,Fusarium sp. 2,>99.9%-100%
same,Summary % reduction in MIC 90 using Tricide,Fusarium sp. 2,>99.9%-100%
same,% decrease MIC 50,Fusarium sp. 2; Tricide 540 ug/ml,>99.9-100% ^
same,% decrease MIC 90,Fusarium sp. 2; Tricide 540 ug/ml,>99.9-100% ^
same,MIC50,Fusarium sp. 2,> 128 µg/mL
same,MIC90,Fusarium sp. 2,> 128 µg/mL
same,Summary % reduction in MIC 50 using Tricide,Penicillium sp.,100%
same,Summary % reduction in MIC 90 using Tricide,Penicillium sp.,100%
same,% decrease MIC 50,Penicillium sp.,100%
same,% decrease MIC 90,Penicillium sp.,100%
same,MIC 50 combined with Tricide,Penicillium sp.,0 µg/mL
same,MIC 90 combined with Tricide,Penicillium sp.,0 µg/mL
same,MIC50,Penicillium sp.,0.5 µg/mL
same,MIC90,Penicillium sp.,0.722 µg/mL
same,MIC50,[2]; Candida albicans,0.201 µg/mL
same,MIC90,[2]; Candida albicans,> 1 µg/mL
same,% decrease MIC 50,"[2]; Candida albicans, Tricide […]",100%
same,% decrease MIC 90,"[2]; Candida albicans, Tricide […]",100%
same,MIC 50 combined with Tricide,"[2]; Candida albicans, Tricide […]",0 µg/mL
same,Summary % reduction in MIC 50 using Tricide,[2],100%
same,Summary % reduction in MIC 90 using Tricide,[2],100%
same,Summary % reduction in MIC 50 using Tricide,Cladosporium sp.,93.8%
same,Summary % reduction in MIC 90 using Tricide,Cladosporium sp.,96.9%
same,% decrease MIC 50,Cladosporium sp.; Tricide 200 ug/ml,>93.8% ^
same,% decrease MIC 90,Cladosporium sp.; Tricide 200 ug/ml,96.9%
same,MIC 50 combined with Tricide,Cladosporium sp.; Tricide 200 ug/ml,<0.25 µg/mL
same,MIC 90 combined with Tricide,Cladosporium sp.; Tricide 200 ug/ml,0.5 µg/mL
same,MIC50,Cladosporium sp.,4 µg/mL
same,MIC90,Cladosporium sp.,16 µg/mL
same,% decrease MIC 50,Curvularia sp.; [3],97-100% ^
same,% decrease MIC 90,Curvularia sp.; [3],80-100% ^
same,MIC 50 combined with Tricide,Curvularia sp.; [3],0 to 0.0250 µg/mL
same,MIC 90 combined with Tricide,Curvularia sp.; [3],0 to 0.4 µg/mL
same,Summary % reduction in MIC 50 using Tricide,Curvularia sp.,97%-100%
same,Summary % reduction in MIC 90 using Tricide,Curvularia sp.,80%-100%
same,MIC50,Curvularia sp.,0.778 µg/mL
same,MIC90,Curvularia sp.,2 µg/mL
same,Summary % reduction in MIC 50 using Tricide,Fusarium sp. 1,>99.9%-100%
same,Summary % reduction in MIC 90 using Tricide,Fusarium sp. 1,99.9%-100%
same,% decrease MIC 50,Fusarium sp. 1; [4],>99.9-100% ^
same,% decrease MIC 90,Fusarium sp. 1; [4],99.9-100%^
same,MIC 90 combined with Tricide,Fusarium sp. 1; [4],0 to 0.05 µg/mL
same,MIC50,Fusarium sp. 1; Fusarium sp. 1,> 128 µg/mL
same,MIC90,Fusarium sp. 1; Fusarium sp. 1,> 128 µg/mL
same,Summary % reduction in MIC 50 using Tricide,Fusarium sp. 3,100%
same,Summary % reduction in MIC 90 using Tricide,Fusarium sp. 3,100%
same,% decrease MIC 50,Fusarium sp. 3,100%
same,% decrease MIC 90,Fusarium sp. 3,100%
same,MIC 50 combined with Tricide,Fusarium sp. 3,0 µg/mL
same,MIC 90 combined with Tricide,Fusarium sp. 3,0 µg/mL
same,MIC50,Fusarium sp. 3,> 128 µg/mL
same,MIC90,Fusarium sp. 3,> 128 µg/mL
